Test system: intrinsic coagulation pathway
Assay: Activated coagulation time (kaolin)
Assay type: in vivo, rat
Text: Activated Coagulation Time (Kaolin)
This test explores the intrinsic coagulation pathway. […] These tubes contain the kaolin activator. (Method HaemoTec., automated coagulation timer manufactured by MEDTRONIC HAEMOTEC Inc., Englewood, Colo., USA).

`C[N+](C)(C)CC(=O)O` [Glycine betaine] was tested, and the “Activated coagulation time” value (10 mg/kg subcutaneous) was 128 s, the Activated coagulation time (10 mg/kg subcutaneous, after 24 hours) was 71 ± 3.51 s and the Activated coagulation time (20 mg/kg subcutaneous, after 24 hours) was 154.66 ± 11.01 s. For the same compound, the “Activated coagulation time” value (30 mg/kg subcutaneous) was 179 s, the “Activated coagulation time” value (50 mg/kg subcutaneous) was 215 s and the “Activated coagulation time relative to control” value (50 mg/kg subcutaneous) was “four times higher”. It also gave an Activated coagulation time (oral 50 mg/kg, 1 hour) of 96 ± 11.27 s, an Activated coagulation time (oral 50 mg/kg, 6 hours) of 124.66 ± 9.29 s and an Activated coagulation time (oral 50 mg/kg, 24 hours) of 64.66 ± 7.37 s. The Activated coagulation time (oral 50 mg/kg, 48 hours) was 55.66 ± 7.02 s.

— US7608640B2, “Glycine betaine and its use” (priority 2001, dated 2009)
